# Data from patent US10294202B2, “Pyrrolidinones as herbicides” (FMC Corporation, priority 2013, dated 2019).
# How the values were obtained:
# [1] = tested on: ducksalad; test: Test B flooded paddy test; format: in vivo, Heteranthera limosa; conditions: Flood, scale of 0 to 100 where 0 is no effect and 100 is complete control
# How it was run: (§1)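 Plants were grown to the 2-leaf stage, then pots were flooded to 3 cm above the soil and compound was applied directly into the paddy water, with that depth held throughout. After 13 to 15 days in a greenhouse, injury was rated visually against untreated controls on a 0 to 100 scale (100 = complete control).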
# [2] = tested on: morningglory; test: Test A pre-/postemergence herbicide test; format: in vivo, Ipomoea spp.
# How it was run: (§2)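 Seeds in loam–sand blend received preemergence directed soil spray; separately, plants 2–10 cm at one- to two-leaf stage received postemergence spray, both with test chemicals in non-phytotoxic solvent with surfactant. After ~10 days in greenhouse, injury rated visually against untreated controls, 0 (no effect) to 100 (complete control).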
# [3] = tested on: wheat; test: Test A pre-/postemergence herbicide test; format: in vivo, Triticum aestivum
# How it was run: as §2
# [4] = tested on: barnyardgrass; test: Test B flooded paddy test; format: in vivo, Echinochloa crus-galli; conditions: Flood, scale of 0 to 100 where 0 is no effect and 100 is complete control
# How it was run: as §1
# [5] = tested on: velvetleaf; test: Test A pre-/postemergence herbicide test; format: in vivo, Abutilon theophrasti
# How it was run: as §2
# [6] = tested on: giant foxtail; test: Test A pre-/postemergence herbicide test; format: in vivo, Setaria faberii
# How it was run: as §2
# [7] = tested on: rice; test: Test B flooded paddy test; format: in vivo, Oryza sativa; conditions: Flood, scale of 0 to 100 where 0 is no effect and 100 is complete control
# How it was run: as §1
# [8] = tested on: crabgrass, large; test: Test A pre-/postemergence herbicide test; format: in vivo, Digitaria sanguinalis
# How it was run: as §2
# [9] = tested on: corn; test: Test A pre-/postemergence herbicide test; format: in vivo, Zea mays
# How it was run: as §2
# [10] = tested on: barnyardgrass; test: Test A pre-/postemergence herbicide test; format: in vivo, Echinochloa crus-galli
# How it was run: as §2
# [11] = tested on: sedge, umbrella; test: Test B flooded paddy test; format: in vivo, Cyperus difformis; conditions: Flood, scale of 0 to 100 where 0 is no effect and 100 is complete control
# How it was run: as §1
# [12] = tested on: pigweed; test: Test A pre-/postemergence herbicide test; format: in vivo, Amaranthus retroflexus
# How it was run: as §2
# [13] = Postemergence, 1000 g ai/ha, 0 to 100 scale (0 no effect, 100 complete control)
# [14] = Preemergence, 1000 g ai/ha, visual rating on 0 to 100 scale (0 no effect, 100 complete control), approx. 10 days
# [15] = Postemergence, 125 g ai/ha, visual rating on 0 to 100 scale (0 no effect, 100 complete control), approx. 10 days
# [16] = Postemergence, 500 g ai/ha, 0 to 100 scale (0 no effect, 100 complete control)
# [17] = Preemergence, 125 g ai/ha, 0 to 100 scale where 0 is no effect and 100 is complete control
# [18] = preemergence, 500 g ai/ha, 0 to 100 scale, 0 is no effect and 100 is complete control
# [19] = Postemergence, 125 g ai/ha, 0 to 100 scale, 0 is no effect, 100 is complete control
# [20] = Postemergence, 125 g ai/ha, 0 to 100 scale, 0 no effect, 100 complete control
# [21] = Preemergence, 125 g ai/ha, visual rating on 0 to 100 scale (0 no effect, 100 complete control)
# [22] = preemergence, 500 g ai/ha, 0 to 100 scale
structure (smiles),measurement,setting,value
CS(=O)(=O)c1ccccc1NC(=O)C1C(=O)NCC1c1ccc(Cl)c(Cl)c1 (stereo not drawn) [Compound 43],"Plant response rating, Ducksalad",[1]; 250 g ai/ha,0
same,"Plant response rating, Morningglory",[2]; [13],10
same,"Plant response rating, Morningglory",[2]; [14],0
same,"Plant response rating, Wheat",[3]; [13],0
same,"Plant response rating, Wheat",[3]; [14],0
same,"Plant response rating, Barnyardgrass",[4]; 250 g ai/ha,0
same,"Plant response rating, Velvetleaf",[5]; [13],30
same,"Plant response rating, Velvetleaf",[5]; [14],0
same,"Plant response rating, Foxtail, Giant",[6]; [13],50
same,"Plant response rating, Foxtail, Giant",[6]; [14],80
same,"Plant response rating, Rice",[7]; 250 g ai/ha,0
same,"Plant response rating, Crabgrass, Large",[8]; [13],20
same,"Plant response rating, Crabgrass, Large",[8]; [14],90
same,"Plant response rating, Corn",[9]; [13],0
same,"Plant response rating, Corn",[9]; [14],0
same,"Plant response rating, Barnyardgrass",[10]; [13],40
same,"Plant response rating, Barnyardgrass",[10]; [14],20
same,"Plant response rating, Sedge, Umbrella",[11]; 250 g ai/ha,0
same,"Plant response rating, Pigweed",[12]; [13],20
same,"Plant response rating, Pigweed",[12]; [14],0
O=C1NCC(c2ccc(Cl)c(C(F)(F)F)c2)C1C(=O)Nc1ccccc1C(F)(F)F (racemic) [Compound 269],"Plant response rating, Ducksalad",[1]; 1000 g ai/ha,100
same,"Plant response rating, Morningglory",[2]; [15],0
same,"Plant response rating, Morningglory",[2]; [16],0
same,"Plant response rating, Morningglory",[2]; [17],0
same,"Plant response rating, Morningglory",[2]; [18],0
same,"Plant response rating, Wheat",[3]; [15],0
same,"Plant response rating, Wheat",[3]; [16],0
same,"Plant response rating, Wheat",[3]; [17],0
same,"Plant response rating, Wheat",[3]; [18],0
same,"Plant response rating, Barnyardgrass",[4]; 1000 g ai/ha,0
same,"Plant response rating, Velvetleaf",[5]; [17],0
same,"Plant response rating, Velvetleaf",[5]; [18],0
same,"Plant response rating, Foxtail, Giant",[6]; [19],70
same,"Plant response rating, Foxtail, Giant",[6]; [16],80
same,"Plant response rating, Foxtail, Giant",[6]; [17],80
same,"Plant response rating, Foxtail, Giant",[6]; [18],80
same,"Plant response rating, Rice",[7]; 1000 g ai/ha,0
same,"Plant response rating, Crabgrass, Large",[8]; [19],60
same,"Plant response rating, Crabgrass, Large",[8]; [16],80
same,"Plant response rating, Crabgrass, Large",[8]; [17],80
same,"Plant response rating, Crabgrass, Large",[8]; [18],90
same,"Plant response rating, Corn",[9]; [19],0
same,"Plant response rating, Corn",[9]; [16],20
same,"Plant response rating, Corn",[9]; [17],0
same,"Plant response rating, Corn",[9]; [18],0
same,"Plant response rating, Barnyardgrass",[10]; [19],50
same,"Plant response rating, Barnyardgrass",[10]; [16],70
same,"Plant response rating, Barnyardgrass",[10]; [17],70
same,"Plant response rating, Barnyardgrass",[10]; [18],80
same,"Plant response rating, Sedge, Umbrella",[11]; 1000 g ai/ha,0
same,"Plant response rating, Pigweed",[12]; [15],70
same,"Plant response rating, Pigweed",[12]; [16],60
same,"Plant response rating, Pigweed",[12]; [17],50
same,"Plant response rating, Pigweed",[12]; [18],70
O=C1NCC(c2ccccc2)C1C(=O)Nc1cccc(F)c1F (stereo not drawn) [Compound 65],"Plant response rating, Ducksalad",[1]; 250 g ai/ha,80
same,"Plant response rating, Morningglory",[2]; [20],0
same,"Plant response rating, Morningglory",[2]; [16],20
same,Morningglory plant response rating,[2]; [21],0
same,"Plant response rating, Morningglory",[2]; [22],0
same,"Plant response rating, Wheat",[3]; [20],0
same,"Plant response rating, Wheat",[3]; [16],20
same,Wheat plant response rating,[3]; [21],0
same,"Plant response rating, Wheat",[3]; [22],0
same,"Plant response rating, Barnyardgrass",[4]; 250 g ai/ha,0
same,"Plant response rating, Velvetleaf",[5]; [20],0
same,"Plant response rating, Velvetleaf",[5]; [16],30
same,Velvetleaf plant response rating,[5]; [21],0
same,"Plant response rating, Velvetleaf",[5]; [22],0
same,"Plant response rating, Foxtail, Giant",[6]; [20],50
same,"Plant response rating, Foxtail, Giant",[6]; [16],90
same,"Foxtail, Giant plant response rating",[6]; [21],80
same,"Plant response rating, Foxtail, Giant",[6]; [22],90
same,"Plant response rating, Rice",[7]; 250 g ai/ha,0
same,"Plant response rating, Crabgrass, Large",[8]; [20],90
same,"Plant response rating, Crabgrass, Large",[8]; [16],90
same,"Crabgrass, Large plant response rating",[8]; [21],90
same,"Plant response rating, Crabgrass, Large",[8]; [22],90
same,"Plant response rating, Corn",[9]; [20],0
same,"Plant response rating, Corn",[9]; [16],20
same,Corn plant response rating,[9]; [21],0
same,"Plant response rating, Corn",[9]; [22],0
same,"Plant response rating, Barnyardgrass",[10]; [20],20
same,"Plant response rating, Barnyardgrass",[10]; [16],70
same,Barnyardgrass plant response rating,[10]; [21],40
same,"Plant response rating, Barnyardgrass","[10]; preemergence, 500 g ai/ha, 0 to 100 scale (0 no effect, 100 complete control)",90
same,"Plant response rating, Sedge, Umbrella",[11]; 250 g ai/ha,40
same,"Plant response rating, Pigweed",[12]; [20],0
same,"Plant response rating, Pigweed",[12]; [16],0
same,Pigweed plant response rating,[12]; [21],0
same,"Plant response rating, Pigweed",[12]; [22],0
